Biological target: FXa (Homo sapiens, UniProt P00742)
Test: Factor Xa inhibition (FXa-IC50)
Format: biochemical
Description: The inhibition of factor Xa by the compounds according to the invention and the measurement of the anticoagulant and antithrombotic activity can be determined by conventional in-vitro or in-vivo methods. A suitable method is described, for example, by J. Hauptmann et al. in Thrombosis and Haemostasis 1990, 63, 220-223.
The inhibition of factor Xa can be measured, for example by the method of T. Hara et al. in Thromb. Haemostas. 1994, 71, 314-319.

FXa, sequence (P00742 235-488 limits assumed): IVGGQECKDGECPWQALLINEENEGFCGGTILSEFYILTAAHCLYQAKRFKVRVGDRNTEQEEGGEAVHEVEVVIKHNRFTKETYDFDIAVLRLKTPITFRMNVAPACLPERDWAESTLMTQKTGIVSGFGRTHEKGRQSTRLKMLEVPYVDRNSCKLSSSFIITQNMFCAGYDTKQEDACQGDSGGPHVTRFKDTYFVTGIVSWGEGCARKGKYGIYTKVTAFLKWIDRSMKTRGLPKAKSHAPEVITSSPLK
FXa, sequence (P00742 41-179 limits assumed): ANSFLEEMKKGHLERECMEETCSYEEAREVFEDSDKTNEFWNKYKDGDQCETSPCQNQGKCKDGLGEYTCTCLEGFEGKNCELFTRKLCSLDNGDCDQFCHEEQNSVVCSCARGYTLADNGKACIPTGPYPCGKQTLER

Row | IC50 | Compound
1 | 12 nM | Cc1cc(NC(=O)Nc2cc(O)ccc2NC(=O)Nc2ccc(Cl)cc2)ccc1N1CCOCC1=O [Compound A1, 1-(4-chlorophenyl)-3-(4-hydroxy-2-{3-[3-methyl-4-(3-oxo-morpholin-4-yl)phenyl]ureido}phenyl)urea]
2 | 420 nM | Cc1cc(NC(=O)Nc2ccncc2NC(=O)Nc2ccc(Cl)cc2)ccc1N1CCOCC1=O [Compound B0, 1-(4-Chlorophenyl)-3-(4-{3-[3-methyl-4-(3-oxomorpholin-4-yl)-phenyl]ureido}pyridin-3-yl)urea]
